In article PMC5730985 (Analytical biochemistry, 2017) one finds Km data, which are given here for 2 molecules.

For the experiment, the system named is PLR3. Description: light-based bioluminescence assay. Format: biochemical, Photinus pyralis. The conditions noted are these: pH 7.4.

The structures appear in SMILES notation. Like-named read-outs stand apart in the source and are kept apart here.

Turning to `O=C(O)[C@H]1CSC(c2nc3ccc(O)cc3s2)=N1` [LH2], the Km (read-out: Km (μM) / LH2, co-substrate Mg-ATP, O2) turned out to be 17 ± 3 µM.
On to `Nc1ncnc2c1ncn2[C@@H]1O[C@H](COP(=O)(O)OP(=O)(O)OP(=O)(O)O)[C@@H](O)[C@H]1O` [Mg-ATP], for which the Km (read-out: Km (μM) / Mg-ATP, co-substrate LH2, O2, Mg complex) was determined as 12 ± 2 µM.
